Measurements published in patent US9663899B2, “Method for making lignocellulosic paper and paper product” (Solenis Technologies, L.P., priority 2015, dated 2017).

Tested on: Laccase NS51003
Assay: ABTS laccase assay for relative laccase activity
Format: biochemical, Aspergillus
Experimental: One unit of activity is equal to the micromole of the oxidized product from ABTS per min per mg protein at pH 4.0 to 6.0 at 23° C. in an acetate buffer. […] A diluted enzyme solution (1.5 milliliter (ml)) was added to a mixture of 1.5 ml ABTS (0.5 millimole (mM)) solution and 1.5 ml of sodium acetate buffer (1 mM) to initiate the oxidization reaction. After mixing, incubation was conducted at 23° C., while the change in absorbance per minute was measured at 420 nm. Two Aspergillus laccases were used both from Novozymes (Bagsvaerd, Denmark), to compare with the enzyme compositions. […] NS51002 alone worked best at pH 4-5 while NS51003 worked best at pH 5-6. The ABTS laccase assay was used to evaluate the effects of cationic fixative polymer, lipase and the laccase activator of the dry strength compositions on laccase activity. The same amount of laccase active in each composition was used in the assay. In Table III, the relative activity numbers were determined by normalizing the values based on that of laccase alone at 100%.

O=S(=O)([O-])[O-].[Cu+2] [copper sulfate]
effect on laccase activity (copper level 0.5 wt. %): lost some of its original activity
effect on laccase activity (copper sulfate in the composition): not significant
effect on laccase activity (dosage of copper sulfate higher than 0.5%): negatively affected
